Like-named read-outs stand apart in the source and are kept apart here.
Columns and labels:
Type in all cases: in vivo
[1] = tested on: Cochliobolus miyabeanus; test: Activity against brown spot of rice caused by Cochliobolus miyabeanus, protective treatment; conditions: Bipolaris oryzae, 144 h, read-out: Efficacy in % of the untreated control
[2] = tested on: Plasmopara viticola; test: Activity against Peronospora of grapevines caused by Plasmopara viticola; conditions: individual active compound, potted vines
Description: The active compounds, separately or jointly, were prepared as a stock solution with 0.25% by weight of active compound in acetone or DMSO. 1% by weight of the emulsifier Uniperol® EL (wetting agent having emulsifying and dispersing action based on ethoxylated alkylphenols) was added to this solution. The active compounds or the mixtures were diluted with water to the stated concentration.
Evaluation was carried out by determining the infected leaf areas in percent. These percentages were converted into efficacies. The efficacy (W) is calculated as follows using Abbot's formula: W=(1−α/β)·100 • α is the level of fungicidal infection of the treated plants in % and • β is the level of fungicidal infection of the untreated (control) plants in %
An efficacy of 0 means that the infection level of the treated plants corresponds to that of the untreated control plants; an efficacy of 100 means that the treated plants were not infected.
The expected efficacies of the mixtures of active compounds were determined using Colby's formula [R. S. Colby, Weeds 15, 20-22 (1967)] and compared with the observed efficacies. Colby's formula: E=x+y−x·y/100 • E expected efficacy, expressed in % of the untreated control, when using the mixture of the active compounds A and B at the concentrations a and b • x efficacy, expressed in % of the untreated control, when using active compound A at the concentration a • y efficacy, expressed in % of the untreated control, when using active compound B at the concentration b
Leaves of potted vines were sprayed to runoff point with an aqueous suspension having the concentration of active compound stated below. The next day, the undersides of the leaves were inoculated with an aqueous sporangial suspension of Plasmopara viticola. The grapevines were then initially placed into a water-vapor-saturated chamber at 24° C. for 48 hours and then placed in a greenhouse at 20-30° C. for 5 days. After this period of time, the plants were again placed in a humid chamber for 16 hours to promote sporangiophore eruption. The extent to which the infection had developed on the undersides of the leaves was then determined visually.

[3] = tested on: Pyricularia oryzae; conditions: individual active compound, rice seedlings Tai-Nong 67

| Structure (SMILES) | pest or weed control at 1 ppm [1] | pest or weed control at 4 ppm [1] | pest or weed control at 16 ppm [1] | Efficacy in % of the untreated control ([3]; 1 ppm in the spray liquor) | also measured |
| --- | --- | --- | --- | --- | --- |
| CC1COC(Cn2cncn2)(c2ccc(Oc3ccc(Cl)cc3)cc2Cl)O1 (stereo not shown) [III (difenoconazole)] | 13% | 38% | 63% |  |  |
| O=c1c2cc(F)ccc2nc(-n2cncn2)n1-c1ccc(Cl)cc1Cl [VI (fluquinconazole), 3-(2,4-dichlorophenyl)-6-fluoro-2-[1,2,4]-triazol-1-yl-3H-quinazolin-4-one] |  |  |  |  | Efficacy in % of the untreated control ([2]; 1 ppm in the spray liquor): 0%; Efficacy in % of the untreated control ([2]; 4 ppm in the spray liquor): 0% |
| FC(F)C(F)(F)OCC(Cn1cncn1)c1ccc(Cl)cc1Cl (stereo not shown) [X (tetraconazole), 1-[2-(2,4-dichlorophenyl)-3-(1,1,2,2-tetrafluoroethoxy)propyl]-1H-[1,2,4]triazole] |  |  |  |  | Efficacy in % of the untreated control ([2]; 1 ppm in the spray liquor): 0%; Efficacy in % of the untreated control ([2]; 4 ppm in the spray liquor): 0% |
| CC1(C)CC/C(=C\c2ccc(Cl)cc2)C1(O)Cn1cncn1 (stereo not shown) [XVII (triticonazole), 5-(4-chlorobenzylidene)-2,2-dimethyl-1-[1,2,4]triazol-1-ylmethyl cyclopentanol] |  |  |  |  | Efficacy in % of the untreated control ([2]; 1 ppm in the spray liquor): 0%; Efficacy in % of the untreated control ([2]; 4 ppm in the spray liquor): 0% |
| CCCCC(O)(Cn1cncn1)c1ccc(Cl)cc1Cl (stereo not shown) [VIII (hexaconazole), 2-(2,4-dichlorophenyl)-1-[1,2,4]triazol-1-ylhexan-2-ol] |  |  |  | 11% |  |
| CCCOC/C(=N\c1ccc(Cl)cc1C(F)(F)F)n1cncn1 [XI (triflumizole), (4-chloro-2-trifluormethylphenyl)-(2-propoxy-1-[1,2,4]triazol-1-ylethylidene)amine] |  |  |  | 11% |  |
| Clc1ccc(C2(Cn3cncn3)CC(Br)CO2)c(Cl)c1 (stereo not shown) [II (bromuconazole), 1-[4-bromo-2-(2,4-dichlorophenyl)tetrahydrofuran-2-ylmethyl]-1H-[1,2,4]triazole] | 13% | 25% | 50% |  |  |
| CC1CCN(c2c(-c3c(F)cc(F)cc3F)c(Cl)nc3ncnn23)CC1 [I, 5-chloro-7-(4-methylpiperidin-1-yl)-6-(2,4,6-trifluorophenyl)-[1,2,4]triazolo[1,5-a]pyrimidine] |  | 33% |  | 11% | Efficacy in % of the untreated control ([3]; 0.25 ppm in the spray liquor): 0%; Efficacy in % of the untreated control ([3]; 4 ppm in the spray liquor): 33%; Efficacy in % of the untreated control ([2]; 1 ppm in the spray liquor): 0%; Efficacy in % of the untreated control ([2]; 4 ppm in the spray liquor): 38% |
| CC(C)C1CCC(Cc2ccc(Cl)cc2)C1(O)Cn1cncn1 (stereo not shown) [XVI (ipconazole), 2-(4-chlorobenzyl)-5-isopropyl-1-[1,2,4]triazol-1-ylmethylcyclo pentanol] |  |  |  | 11% |  |
| N#CC(Cc1ccc(Cl)cc1)(c1ccccc1)n1cncn1 (stereo not shown) [V (fenbuconazole), 3-(4-chlorophenyl)-2-phenyl-2-[1,2,4]triazol-1-ylpropionitrile] |  |  |  | 0% |  |
| CCCC(Cn1cncn1)c1ccc(Cl)cc1Cl (stereo not shown) [XIV (penconazole), 1-[2-(2,4-dichlorophenyl)pentyl]-1H-[1,2,4]triazole] | 0% | 25% | 63% |  |  |
| CC(C)(C)C(O)/C(=C\c1ccc(Cl)cc1Cl)n1cncn1 (stereo not shown) [IV (diniconazole), 1-(2,4-dichlorophenyl)-4,4-dimethyl-2-[1,2,4]triazol-1-ylpent-1-en-3-ol] | 0% | 0% | 25% |  |  |
| OC(Cn1cncn1)(c1ccc(F)cc1)c1ccccc1F (stereo not shown) [XII (flutriafol), 1-(4-fluorophenyl)-1-(2-fluorophenyl)-2-[1,2,4]triazol-1-ylethanol] | 0% | 25% | 63% |  |  |
| OC(Cc1ccccc1Cl)(Cn1nc[nH]c1=S)C1(Cl)CC1 (stereo not shown) [XVIII (prothioconazole), 2-[2-(1-chlorocyclopropyl)-3-(2-chlorophenyl)-2-hydroxypropyl]-2,4-dihydro[l,2,4]triazole-3-thione] | 13% | 50% | 63% |  |  |

Source: patent US20060111320A1, “Fungicidal mixtures based on a triazolopyrimidine derivative and azoles” (priority 2002, published 2006)
